Molecular target: T1, Aromatase (Homo sapiens, UniProt P11511)
T1 sequence (P11511 whole entry): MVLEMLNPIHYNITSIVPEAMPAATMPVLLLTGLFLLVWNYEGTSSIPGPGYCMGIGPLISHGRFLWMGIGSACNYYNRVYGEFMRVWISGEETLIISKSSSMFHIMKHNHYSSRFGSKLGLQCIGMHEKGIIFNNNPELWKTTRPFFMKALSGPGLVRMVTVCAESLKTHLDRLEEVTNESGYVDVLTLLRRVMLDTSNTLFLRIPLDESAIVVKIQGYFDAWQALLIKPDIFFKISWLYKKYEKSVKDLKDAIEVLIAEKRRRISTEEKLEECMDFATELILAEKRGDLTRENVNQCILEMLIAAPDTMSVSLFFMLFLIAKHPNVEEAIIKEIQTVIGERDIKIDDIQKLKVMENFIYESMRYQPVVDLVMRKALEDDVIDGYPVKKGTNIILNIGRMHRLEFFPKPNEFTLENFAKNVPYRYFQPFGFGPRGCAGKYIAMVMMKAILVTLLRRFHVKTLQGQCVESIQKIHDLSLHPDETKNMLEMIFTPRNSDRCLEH

Structure (SMILES) | IC50 [µM]
CCCCO[C@H]1C[C@@H]2[C@H](CC[C@]3(C)C(=O)CC[C@@H]23)c2ccc(O)cc21 | 170
C[C@]12CC[C@H]3[C@@H]([C@H](CCc4ccccc4)CC4=CC(=O)CC[C@@]43C)[C@@H]1CC[C@@H]2O | 0.036
C[C@]12C=CC(=O)C=C1[C@H](c1ccccc1)C[C@@H]1[C@@H]2CC[C@]2(C)C(=O)CC[C@@H]12 | 0.53
C[C@]12CCC(=O)C(O)=C1C(=O)C[C@@H]1[C@@H]2CC[C@]2(C)C(=O)CC[C@@H]12 | 0.46
C[C@]12CC[C@@H]3c4ccc(O)cc4CC[C@H]3[C@@H]1CCC2=O [ESTRONE] | 26
C[C@]12C[C@@H](F)C(=O)C=C1[C@H](F)C[C@@H]1[C@@H]2CC[C@]2(C)C(=O)CC[C@@H]12 | 1
CCOC1=C2C(=O)C[C@@H]3[C@H](CC[C@]4(C)C(=O)CC[C@@H]34)[C@@]2(C)CCC1=O | 4.5
C[C@]12CC[C@H]3[C@@H](CCC4=CC(=O)CC[C@@]43C=O)[C@@H]1CCC2=O | 1.2
CCOC1=C[C@@]2(C)C(=CC1=O)CC[C@@H]1[C@@H]2CC[C@]2(C)C(=O)CC[C@@H]12 | 17.6
CCCCS[C@@H]1CC2=CC(=O)CC[C@]2(C)[C@H]2CC[C@]3(C)C(=O)CC[C@H]3[C@H]12 | 0.057
C[C@]12CC[C@@H]3c4ccc(O)cc4[C@@H](c4ccccc4)C[C@H]3[C@@H]1CCC2=O | 1.4
C[C@@H]1C[C@@H]2[C@H](CC[C@]3(C)C(=O)CC[C@@H]23)[C@@]2(C)CCCC=C12 | 0.049
C[C@]12C=CC(=O)C=C1C=C[C@@H]1[C@@H]2CC[C@]2(C)C(=O)CC[C@@H]12 | 0.45
CCCC[C@H]1C[C@@H]2[C@H](CC[C@]3(C)C(=O)CC[C@@H]23)[C@@]2(C)CCC(=O)C=C12 | 0.791
C[C@]12C[C@@H](CCCc3ccccc3)C(=O)C=C1CC[C@@H]1[C@@H]2CC[C@]2(C)C(=O)CC[C@@H]12 | 50.2
C[C@]12CC[C@@H]3c4cc(Br)c(O)cc4CC[C@H]3[C@@H]1CCC2=O | 2.4
C[C@]12C=CC(=O)C=C1[C@H](CCCCCc1ccccc1)C[C@@H]1[C@@H]2CC[C@]2(C)C(=O)CC[C@@H]12 | 0.1
CCC1=C[C@@H]2[C@H](CC[C@]3(C)C(=O)CC[C@@H]23)[C@@]2(C)CCC(=O)C=C12 | 0.39
C[C@]12CC[C@H]3[C@@H](CCC4=CC(=O)C(O)C[C@@]43C(F)F)[C@@H]1CCC2=O (stereo partly drawn) | 3.8
Cc1ccc(S(=O)(=O)N2[C@H]3[C@@H]4[C@H](CC[C@]5(C)C(=O)CC[C@@H]45)[C@@]4(C)CCC(=O)C=C4[C@H]32)cc1 (stereo partly drawn) | 92.9
C[C@]12C=CC(=O)C=C1C(CCc1ccccc1)=C[C@@H]1[C@@H]2CC[C@]2(C)C(=O)CC[C@@H]12 | 0.0729
C[C@]12CC[C@@H]3c4ccc(O)cc4[C@@H](Cc4ccccc4)C[C@H]3[C@@H]1CCC2=O | 3.5
C[C@]12CC[C@H]3[C@@H](C=CC4=CC(=O)CC[C@@]43CI)[C@@H]1CCC2=O | 6.1

Structure (SMILES) | IC50 [µM]
CC1(C)C[C@@]2(C)C(=CC1=O)C(=O)C[C@@H]1[C@@H]2CC[C@]2(C)C(=O)CC[C@@H]12 | 0.3
CC(=O)OC1C[C@@]2(C)C(=CC1=O)C(=O)C[C@@H]1[C@@H]2CC[C@]2(C)C(=O)CC[C@@H]12 (stereo partly drawn) | 24
CC(C)[C@H]1C[C@@H]2[C@H](CC[C@]3(C)C(=O)CC[C@@H]23)[C@@]2(C)CCC(=O)C=C12 | 1.4
CC(=O)OC[C@]12CCCC=C1CC[C@@H]1[C@@H]2CC[C@]2(C)C(OC(C)=O)CC[C@@H]12 (stereo partly drawn) | 38
C[C@]12CCC(=O)C(O)=C1C=C[C@@H]1[C@@H]2CC[C@]2(C)C(=O)CC[C@@H]12 | 1
C[C@]12CC[C@@H]3c4cc(NC(=O)c5cccnc5)c(O)cc4CC[C@H]3[C@@H]1CCC2=O | 75.3
C[C@]12CC[C@H]3[C@@H](CC=C4C(=O)CCC[C@@]43C)[C@@H]1CC[C@@H]2O | 10
C[C@]12CCC(=O)C(F)=C1CC[C@@H]1[C@@H]2CC[C@]2(C)C(=O)CC[C@@H]12 | 0.48
C[C@]12CCCCC1=CC(=O)[C@@H]1[C@@H]2CC[C@]2(C)C(O)CC[C@@H]12 (stereo partly drawn) | 1.6
C[C@]12C=C(O)C(=O)C=C1C(=O)C[C@@H]1[C@@H]2CC[C@]2(C)C(=O)CC[C@@H]12 | 5.6
C[C@]12CC[C@@H]3c4ccc(O)cc4[C@H](CCCc4ccccc4)C[C@H]3[C@@H]1CC[C@@H]2O | 28
C[C@]12CCC(=O)C=C1C(N=[N+]=[N-])=C[C@@H]1[C@@H]2CC[C@]2(C)C(=O)CC[C@@H]12 | 4.55
C[C@]12CCC(=O)C=C1[C@@H]1[C@H]([C@@H]3[C@@H]2CC[C@]2(C)C(=O)CC[C@@H]32)C1(F)F | 1.15
C[C@]12CCC(=O)C=C1[C@@H](Cc1ccccc1)C[C@@H]1[C@@H]2CC[C@]2(C)C(=O)CC[C@@H]12 | 0.661
C[C@]12CC[C@H]3[C@@H](C=CC4=CC(=O)C=C[C@@]43CI)[C@@H]1CCC2=O | 4.7
C[C@]12CCC(=O)C(Sc3ccccc3)=C1C=C[C@@H]1[C@@H]2CC[C@]2(C)C(=O)CC[C@@H]12 | 0.025
C[C@]12CC[C@H]3[C@@H](C(=O)C=C4C=CCC[C@@]43C=O)[C@@H]1CCC2=O | 11
CCCCCC[C@H]1C[C@@H]2[C@H](CC[C@]3(C)C(=O)CC[C@@H]23)[C@@]2(C)CCC(=O)C=C12 | 1
C[C@]12CCC(=O)C=C1[C@H](O)C(N=[N+]=[N-])[C@@H]1[C@@H]2CC[C@]2(C)C(=O)CC[C@@H]12 (stereo partly drawn) | 3.03
C[C@]12CC[C@H]3[C@@H](C(=O)C=C4C=CCC[C@@]43CO)[C@@H]1CCC2=O | 60
CC(=O)O[C@@H]1C(=O)C2=CC(=O)CC[C@]2(C)[C@H]2CC[C@]3(C)C(=O)CC[C@H]3[C@H]12 | 5.3
CO[C@@H]1C[C@@H]2[C@H](CC[C@]3(C)C(=O)CC[C@@H]23)[C@@]2(C)CCCC=C12 | 0.05
C[C@]12CCC(=O)C=C1C(CCc1ccccc1)=C[C@@H]1[C@@H]2CC[C@]2(C)C(=O)CC[C@@H]12 | 0.092

Structure (SMILES) | IC50 [µM]
CC1=C[C@@]2(C)C(=CC1=O)C(Br)C[C@@H]1[C@@H]2CC[C@]2(C)C(=O)CC[C@@H]12 (stereo partly drawn) | 0.71
CC1(C)C[C@@]2(C)C(=C(O)C1=O)C(=O)C[C@@H]1[C@@H]2CC[C@]2(C)C(=O)CC[C@@H]12 | 0.44
C[C@]12CC[C@H]3[C@@H](CC=C4C(=O)CCC[C@@]43CO)[C@@H]1CCC2=O | 22
C[C@]12CC[C@H]3[C@@H](C=CC4=CC(=O)C=C[C@@]43CBr)[C@@H]1CCC2=O | 2.1
C[C@]12C=C(CCCCc3ccccc3)C(=O)C=C1CC[C@@H]1[C@@H]2CC[C@]2(C)C(=O)CC[C@@H]12 | 34.2
COC1=C2C(=O)C[C@@H]3[C@H](CC[C@]4(C)C(=O)CC[C@@H]34)[C@@]2(C)CCC1=O | 2
CCC1C[C@H]2[C@@H]3CC[C@H](O)[C@@]3(C)CC[C@@H]2[C@@]2(C)CCC(=O)C=C12 (stereo partly drawn) | 0.052
C[C@]12C=C(Br)C(=O)C=C1CC[C@@H]1[C@@H]2CC[C@]2(C)C(=O)CC[C@@H]12 | 1.84
C[C@]12CC[C@@H]3c4cc(F)c(O)cc4CC[C@H]3[C@@H]1CCC2=O | 11.6
C[C@]12CC[C@H]3[C@@H](CC=C4CCCC[C@@]43CO)[C@@H]1CCC2O (stereo partly drawn) | 61.9
CCCCCC[C@@H]1C[C@@H]2[C@H](CC[C@]3(C)C(=O)CC[C@@H]23)[C@@]2(C)C=CC(=O)C=C12 | 0.076
CCCC1=C[C@@H]2[C@H](CC[C@]3(C)C(=O)CC[C@@H]23)[C@@]2(C)CCC(=O)C=C12 | 0.315
CC(=O)O[C@H]1CCC[C@@]2(C)C1=CC(=O)[C@@H]1[C@@H]2CC[C@]2(C)C(=O)CC[C@@H]12 | 95.1
C[C@]12CCC(=O)C=C1[C@H](CCc1ccccc1)C[C@@H]1[C@@H]2CC[C@]2(C)C(=O)CC[C@@H]12 | 1050
COc1cc2c(cc1O)CC[C@@H]1[C@@H]2CC[C@]2(C)[C@@H](O)CC[C@@H]12 [2-METHOXYESTRADIOL] | 20
C[C@]12CC[C@H]3[C@@H]([C@H](Cc4ccccc4)CC4=CC(=O)CC[C@@]43C)[C@@H]1CC[C@@H]2O | 0.0395
C[C@]12CC[C@@H]3c4ccc(O)cc4[C@H](c4ccccc4)C[C@H]3[C@@H]1CCC2=O | 12
C[C@]12CC[C@H]3[C@@H](C=CC4=CC(=O)C=C[C@@]43CCl)[C@@H]1CCC2=O | 1.33
CC[C@@H]1C[C@@H]2[C@H](CC[C@]3(C)C(O)CC[C@@H]23)[C@@]2(C)CCCC=C12 (stereo partly drawn) | 1.3
CC(=O)O[C@H]1C[C@@H]2[C@H](CC[C@]3(C)C(=O)CC[C@@H]23)[C@@]2(C)CCCC=C12 | 0.19
CC1(C)C[C@@]2(C)C(=CC1=O)[C@H](Br)C[C@@H]1[C@@H]2CC[C@]2(C)C(=O)CC[C@@H]12 | 0.11
C[C@]12CCC=CC1=CC(=O)[C@@H]1[C@@H]2CC[C@]2(C)C(=O)CC[C@@H]12 | 1.8

Reference: ChEMBL document CHEMBL5241054, “Effective anti-aromatase therapy to battle against estrogen-mediated breast cancer: Comparative SAR/QSAR assessment on steroidal aromatase inhibitors” (Eur J Med Chem, 2020)
